Experiments:
[1] = Release of free drug from the dialysis bag; format: physicochemical; conditions: same dialysis setting
Experimental: It is of importance that large molecular weight polymeric drugs having apparent molecular size larger than 10.000, preferably more than 50 KDa such as SMA-anthracyclin micelles, to exert tumor seeking EPR-effect, and thereby ultimately releasing free drug. To verify the drug complexes of the present invention release free drug from the micelle or polymeric conjugate in vitro, 20 mg of SMA-doxorubicin conjugates or SMA-pirarubicin conjugates was dissolved in 5 ml H2O and placed in sealed dialysis bag (M. W cut off 1.000; Spectrapor, Spectrum Laboratories Inc. CA. USA.). The dialysis bag was submerged in 25 ml of H2O with adjusted pH either at 7.4 to resemble circulating blood or pH 5.5 for tumor tissue, using 0.01 M NaOH and 0.01 M HCl, and incubated at 37° C. for several days in the dark. […] The released pirarubicin or doxorubicin outside the dialysis bag was collected at pre-determined time and amount was quantified by absorbance at 480 nm.
When the outside solution was replaced by ethanol the release rate has increased tremendously indicating the disruption of the hydrophobic interaction in the complex between the anthracyclins and the styrene hydrophobic moiety of SMA. One can envisage this hydrophobic environment would be more close to the endosome after internalization of the polymeric micelle into cytoplasm of cancer cell by endocytosis. […]

[2] = Side effects / hematological toxicity in S-180 bearing mice; format: in vivo; conditions: 10 mg/kg iv
Experimental: S-180 bearing mice with tumors of about 5-7 mm in diameter were used for this study. Full blood analysis was performed weekly for 4 weeks before and after 1, 2 and 3 weeks of iv injections of either doxorubicin, pirarubicin or their SMA micelle complexes as described above. Blood biochemistry including, alanine aminotransferase (ALT), aspartate aminotransferase (AST), lactic dehydrogenase (LDH) and total creatine phosphokinase (CPK) were measured at 36 hr after i.v. administration of either free drugs or SMA-micelle complexes.
At the same time, the heart, spleen, liver and kidney tissues were stained with hematoxylin-eosin (H&E staining) for determination of cytological tissue toxicity.

COc1cccc2c1C(=O)c1c(O)c3c(c(O)c1C2=O)CC(O)(C(=O)CO)CC3OC1CC(N)C(OC2CCCCO2)C(C)O1 (centres unmarked) [Free pirarubicin, pirarubicin]
time for free drug to extravasate out of the dialysis tube [1]: within a few hours | Erythrocyte ([2]; 1 week): 490.6 ± 144 ×10,000/mm^3 | Hemoglobin ([2]; 1 week): 11.1 ± 0.9 g/dL | Leucocyte ([2]; 1 week): 2533 ± 108 /mm^3 | Survival Rate ([2]; 1 week): 100% | Thrombocyte ([2]; 1 week): 67.7 ± 0.9 ×1,000/mm^3 | Erythrocyte ([2]; 2 week): 876 ×10,000/mm^3 | Hemoglobin ([2]; 2 week): 12.1 g/dL | Leucocyte ([2]; 2 week): 5000 /mm^3 | Survival Rate ([2]; 2 week): 25% | Thrombocyte ([2]; 2 week): 130 ×1,000/mm^3 | Erythrocyte ([2]; 3 week): 916 ×10,000/mm^3 | Hemoglobin ([2]; 3 week): 15.7 g/dL | Leucocyte ([2]; 3 week): 4500 /mm^3 | Survival Rate ([2]; 3 week): 25% | Thrombocyte ([2]; 3 week): 143 ×1,000/mm^3

COc1cccc2c1C(=O)c1c(O)c3c(c(O)c1C2=O)C[C@@](O)(C(=O)CO)C[C@@H]3O[C@H]1C[C@H](N)[C@H](O)[C@H](C)O1 [doxorubicin]
time for free drug to extravasate out of the dialysis tube [1]: within a few hours

Reference: patent US7682630B2, “Antitumor agent and process for producing the same” (priority 2003, dated 2010)
